The values below come from US20070110885A1, “Method for controlling retention of an organic compound or of a plurality of organic compounds inside a liquid or solid phase and applications of said method, in particular in the agri-food domain” (priority 2002, published 2007).

Holding throughout (assay type): physicochemical
Data set [1] can be described thus: Retention of aroma between aqueous phase (water) and organic liquid phase (dichloromethane) versus redox. Particulars: water/dichloromethane mixture; FIG. 9. From the text: FIG. 9 illustrates the results of a measurement of the retention degree of 2-nonanone between an aqueous phase (water) and an organic liquid phase (dichloromethane) with non pressurized flasks (diamonds) or pressurized flasks with hydrogen (squares).
The experiment of Example 2 is realized, but in a mixture of water (aqueous phase)/dichloromethane (CH2Cl2, organic phase).

Data set [2] is described as follows: Static headspace measurement of aroma release from a liquid phase to the vapour phase versus redox potential modified by gas bubbling. Particulars: for change of mass sharing coefficient Ki when the redox potential of the first liquid phase is lowered: liquid phase/gas phase; for effect of redox on aroma release/retention (headspace): FIG. 3, 4, 5. An excerpt:
The study of the checking of the mass sharing coefficient Ki of an organic compound (i) between two phases, respectively a first liquid phase and a second vapour phase, as a function of the redox potential value includes the quantification of the organic compound (i) in the vapour phase at equilibrium, by the static headspace technique. In the examples, the method of the invention is illustrated with aroma-type organic compounds (i).
The static headspace technique consists in analyzing the vapours in equilibrium above a solution placed in a confined atmosphere at a given temperature. The vapour analysis in gas chromatography (CPG) gives the volatile compound concentration of the “head space”.
The aroma solutions are prepared in a solution of 50 mM NaCl, the pH of which has been adjusted to pH 3 with HCl (1N) or at pH 7.5 with NaOH (1N).
Furthermore, tests have also been realized in the presence of a lactoserum protein, the β-lactoglobuline, dispersed (3%) in a solution of 50 mM NaCl at pH 3 or pH 7.5, or in whole or skimmed milk.
The redox is modified by bubbling a gas (hydrogen, nitrogen, helium, or oxygen) at a flowrate of 20 mL.min^−1 for a previously determined time (8 min). The redox measurement is realized after the gas bubbling step with a redox measurement electrode connected to a pH meter-voltameter. The thus prepared solutions are distributed on the basis of 10 mL in brown flasks of 40 mL (Supelco, France) closed by Mininert valve plugs (Supelco). […]
A control is realized in the presence of air: the bubbling step is not realized, only the pressurization occurs, in the same conditions as the other gasses.
The flasks are then equilibrated in a water bath at 30° C. for 1 hr 30. At least 3 brown flasks are prepared for each gas, a flask serving only for one injection.
At the equilibrium, 1 mL of vapour phase is taken with a 1 mL gas syringe (SGE), then injected in a gas chromatograph (CPG) provided with a DB-WAX column (J&W Scientific, diameter 0.32 mm, length 30 m, phase thickness 0.5 μm) and a flame ionization detector. The injector and detector temperatures are respectively 250° C. and 260° C. The vector gas velocity (hydrogen) at 143° C. is of 37 cm.sec-^1. The signal acquisition is achieved with a chromatogram acquisition and treatment software developed in the laboratory.
Thus, the amount of aroma present in the vapour phase is determined for each gas.

A short description of data set [3]: Evaluation of the aroma losses during gas bubbling (Tenax entrapment and pentane extraction). To be noted: 50 ppm in NaCl 50 mM pH 7.5. On the procedure:
4. Evaluation of the Losses During the Bubbling
The aroma losses upon bubbling have been evaluated by entrapment on an absorbing polymer (Tenax) of the gas effluent at the flask outlet and by extraction of the liquid phase with pentane. The same is done for all the gasses being used.
The loss test is made on a 50 mL of a 2-nonanone solution (50 ppm) in NaCl (50 mM, pH 7.5).
The gas is simultaneously bubbled (8 min) at the same flowrate of 20 mL.min^−1 in the flask, then the gas effluent is entrapped on Tenax at the flask outlet. This Tenax trap is afterwards desorbed on a TCT Chrompak apparatus coupled with a HP chromatograph provided with a FID detector.
The amount of aroma entrapped on Tenax is determined in comparison with an external calibration curve. This calibration curve is obtained as described hereinafter: 1 μl of 2-nonanone solution is deposited in pentane in the glass cotton of the Tenax tube upper part, then the Tenax tube is desorbed in the same conditions as for the analysis. Different concentrations have been tested.
The amount of aroma remaining in the liquid phase is determined by extraction of the aroma solution (5 mL) by pentane (5 mL). One μl of the organic phase is injected in split/splitless in CPG. A comparison is made with an external calibration, obtained by injection of 1 μl of 2-nonanone solution in pentane.

Data set [4] is described as follows: Static headspace measurement with redox modified by addition of molecules (DTT, potassium ferricyanide). On the procedure: 1. Preparation of the Reducing Medium
The reducing medium is obtained by addition of DTT(1,4-dithiothreitol). The ultrapure water employed for the solution preparation is degassed with a high gas flowrate during 1 h. La 2-nonanone solution (50 ppm) is prepared through addition of such aroma into the degassed water; the solution volume has been chosen so that a minimum of air exists between the plug and the solution. The thus prepared solution is stirred for homogenisation for 30 min.
An aliquot of this solution is added with DTT (10 g.l^−1) and then this solution is stirred for 30 min.
In order to prevent the dilution phenomenon, another protocol has been used: the degassed water is added with DTT (10 g.l^−1), then the aroma is added.
The thus prepared solutions are distributed at a level of 10 mL in 40 mL brown flasks (Supelco, France) closed by Mininert valves (Supelco). The flasks are pressurized with nitrogen for 1 min with a flowrate of 260 mL.min^−1. The overpressure is then evacuated. The flasks are then equilibrated during 1 h 30 in a water bath at 30° C. For each one of the conditions, 4 repetitions are realized.
2. Preparation of the Oxidizing Medium
The oxidizing medium is obtained by addition of potassium ferricyanide.
Two aroma solutions are prepared: for solution 1, the 2-nonanone is solubilized in water and then the solution is stirred for 30 min; for solution 2, the potassium ferricyanide is dissolved in water, then the 2-nonanone is added. This solution is afterwards stirred during 30 min.
The thus prepared solutions are distributed at a level of 10 mL in 40 mL brown flasks (Supelco, France) closed by Mininert valves (Supelco).
The flasks are then equilibrated during 1 h 30 in a water bath at 30° C. For each one of the conditions, 4 repetitions are realized.

Consider `CCCCCCCC(C)=O` [2-nonanone], for which the “retention in the aqueous phase at low redox” value in data set [1] is on record as “better retained in the aqueous phase”. In data set [2] (aqueous liquid phase contacted with 100% oxygen or air (21% oxygen), same with 100% nitrogen), the “effect of a positive redox potential value on release” value is listed as “favours the release or the transfer”. The “retention within the liquid phase with helium gas” value in data set [2] (aqueous solution pH 7.5, helium, redox +400 mV) is given as “no significant difference”. In data set [2] (aqueous solution pH 7.5, hydrogen -320 mV versus nitrogen/oxygen about +500 mV, FIG. 1), the “modification of the medium aroma release at low redox (headspace)” value is on record as roughly −30%. Besides, in data set [2] (aqueous solution pH 7.5, hydrogen, non pressurized flask, FIG. 8), the “effect when the atmosphere is neutral or oxidizing and the redox increases” value is “effect inverses”. The “effect at low redox under reducing atmosphere” value in data set [2] (aqueous solution pH 7.5, hydrogen, pressurized flask, FIG. 8) was “retention effect”. Further, the “difference of retention depending on the redox” value in data set [2] (aqueous solution with beta-lactoglobuline at 3%, pH 7.5 and acid medium, FIG. 2) is on record as “does not show any difference of retention depending on the redox”. In addition, in data set [2] (aqueous solution, acid medium, FIG. 1), the “modification of the aroma release at low redox (headspace)” value is −20%. In data set [2] (liquid phase contacted with gas containing 100% hydrogen), the “effect of a negative level of redox potential on retention” value was “favours the 2-nonanone retention in the liquid phase”. The “change of mass sharing coefficient Ki when the redox potential of the first liquid phase is lowered” value (from here on “change … of the first liquid phase is lowered”) in data set [2] is listed as “growth of the mass sharing coefficient Ki value”. Besides, the “change of mass sharing coefficient Ki at low redox potential” value in data set [2] (skimmed milk, pH 4.6) was “reduction of the mass sharing coefficient value Ki”. In addition, in data set [2] (skimmed milk, FIG. 7), the “effect at high redox” value is recorded as “no effect”. Further, in data set [2] (skimmed milk, FIG. 7), the “retention effect at low redox” value was −20%. Besides, the “redox effect on the aroma release” value in data set [2] (whole milk, FIG. 7) was “do not show any redox effect”. Also, the “aroma losses during bubbling” value is 0.5% in data set [3] (helium); 0.3% in data set [3] (hydrogen); 2% in data set [3] (nitrogen); 2.3% in data set [3] (oxygen); less than 3% in data set [3] (regardless of the gas employed, bubbling 8 min at 20 mL/min). In addition, the “effect of reducing the redox potential by a reducing compound” value in data set [4] (aqueous liquid phase, dithiothreitol (DTT) added) is recorded as “favours the 2-nonanone retention in the liquid phase”. In addition, the “effect of increasing the redox potential by an oxidizing compound” value in data set [4] (aqueous liquid phase, potassium ferricyanide added) is on record as “favours the 2-nonanone release or transfer towards the second gas phase”. Besides, in data set [4] (water, 50 ppm, DTT 10 g/l versus potassium ferricyanide, FIG. 10), the “release in the vapour phase in a reducing medium versus oxidizing medium” value was “less 2-nonanone released in the vapour phase than in the oxidizing medium”.
As for `C=CCN=C=S` [AITC, allyl isothiocyanate], the “effect of redox on aroma release/retention (headspace)” value in data set [2] (conditions of Examples 2, 3, 4) was −30%. Moreover, the “change … of the first liquid phase is lowered” value in data set [2] was “growth of the mass sharing coefficient Ki value”.
On the same counts, the results for `CC(=O)C(C)=O` [diacetyl] are “+20%” and “increase of the mass sharing coefficient Ki”.
As for `CCCCCC(=O)OCC` [ethyl hexanoate], the “effect of redox on aroma release/retention (headspace), in words” value in data set [2] (conditions of Examples 2, 3, 4, FIG. 5) is “no effect”. In addition, the “change … of the first liquid phase is lowered” value in data set [2] was “lack of significant modification”.
